Like-named read-outs stand apart in the source and are kept apart here.
Assays:
[1] = system: Jurkat HIV-luciferase clones; assay: Jurkat latency reversal assay; format: cell-based; settings: Homo sapiens, 48 h; Jurkat latency reversal assay potency; read-out: Jurkat pEC50 (converted)
Procedure, shortened: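 Compounds are titrated 3-fold over 14 points from 10 μM in duplicate at 0.5% DMSO. Clones C16, 115 and N6, grown with 500 nM EFV, are co-incubated for 48 h at 37° C. Virally driven luciferase is read by luminescence, and EC50 and maximal percent activation versus vehicle come from a four-parameter model.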

XIAP-BIR3 = XIAP-BIR3 (Homo sapiens (Human), UniProt P98170); assay: BIR binding assay (FRET competition), XIAP BIR3; settings: for XIAP BIR3 vs BIR2 separation window: fold separation (FS) for XIAP
Sequence of XIAP-BIR3 (P98170 241-356): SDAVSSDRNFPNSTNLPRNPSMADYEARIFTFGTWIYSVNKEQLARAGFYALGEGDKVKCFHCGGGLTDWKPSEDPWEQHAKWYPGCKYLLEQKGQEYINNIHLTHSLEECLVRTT
Procedure, shortened: (§1)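 Each domain is run separately at its own level: 50 nM cIAP1-BIR3, 100 nM XIAP-BIR3, 325 nM for cIAP1-BIR2 or cIAP2-BIR2. Probe is a 200 nM fluorescent SMAC peptide, and the value is IC50 from FRET competition.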

cIAP2-BIR3 = cIAP2-BIR3 (Homo sapiens (Human), UniProt Q13489); assay: BIR binding assay (FRET competition), cIAP2 BIR3; settings: for cIAP2 BIR3 vs BIR2 separation window: fold separation (FS) for cIAP2
Sequence of cIAP2-BIR3 (Q13489 238-349): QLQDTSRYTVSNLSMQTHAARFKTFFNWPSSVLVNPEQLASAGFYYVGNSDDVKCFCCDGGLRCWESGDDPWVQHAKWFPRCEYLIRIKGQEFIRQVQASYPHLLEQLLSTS

XIAP-BIR2 = XIAP-BIR2 (Homo sapiens (Human), UniProt P98170); assay: BIR binding assay (FRET competition), XIAP BIR2; settings: read-out: XIAP BIR2 (pIC50) (converted)
Sequence of XIAP-BIR2 (P98170 124-240): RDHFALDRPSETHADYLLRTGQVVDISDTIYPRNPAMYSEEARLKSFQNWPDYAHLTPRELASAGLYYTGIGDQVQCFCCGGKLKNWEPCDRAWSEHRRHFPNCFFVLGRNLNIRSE
Procedure, shortened: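 Compounds in a 15-point, 3-fold series competed with an AlexaFluor647 SMAC peptide (AVPIAQKSE, 200 nM) for 200 nM His-tagged XIAP-BIR2 over 60 min in pH 7.4 HEPES/CHAPS/DTT buffer. Eu-W1024 (2 nM) was then added for 30 min. IC50 and pIC50 were derived from the 615 nm/665 nm emission ratio by variable-slope fit.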

cIAP1-BIR2 = cIAP1-BIR2 (Homo sapiens (Human), UniProt Q13490); assay: BIR binding assay (FRET competition), cIAP1 BIR2
Sequence of cIAP1-BIR2 (Q13490 173-257): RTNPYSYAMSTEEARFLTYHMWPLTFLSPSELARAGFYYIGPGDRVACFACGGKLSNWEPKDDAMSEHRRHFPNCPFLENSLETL
Procedure, shortened: as §1

cIAP1-BIR3 = cIAP1-BIR3 (Homo sapiens (Human), UniProt Q13490); assay: BIR binding assay (FRET competition), cIAP1 BIR3; settings: for cIAP1 BIR3 vs BIR2 separation window: fold separation (FS) for cIAP1
Sequence of cIAP1-BIR3 (Q13490 253-363): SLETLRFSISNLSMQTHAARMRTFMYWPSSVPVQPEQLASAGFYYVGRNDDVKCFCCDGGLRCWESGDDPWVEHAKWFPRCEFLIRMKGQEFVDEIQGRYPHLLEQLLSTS
Procedure, shortened: as §1

cIAP2-BIR2 = cIAP2-BIR2 (Homo sapiens (Human), UniProt Q13489); assay: BIR binding assay (FRET competition), cIAP2 BIR2
Sequence of cIAP2-BIR2 (Q13489 158-242): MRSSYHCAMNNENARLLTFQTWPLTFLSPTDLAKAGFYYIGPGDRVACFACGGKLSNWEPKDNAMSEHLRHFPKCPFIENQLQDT
Procedure, shortened: as §1

Structure (SMILES) | EC50 [1] [nM] | IC50 (XIAP-BIR3) [nM] | XIAP BIR3 vs BIR2 separation window (XIAP-BIR3) | IC50 (cIAP2-BIR3) [nM] | cIAP2 BIR3 vs BIR2 separation window (cIAP2-BIR3) | IC50 (XIAP-BIR2; FRET competition) [nM] | IC50 (cIAP1-BIR2) [nM] | IC50 (cIAP1-BIR3) [nM] | cIAP1 BIR3 vs BIR2 separation window (cIAP1-BIR3) | IC50 (cIAP2-BIR2) [nM] | IC50 (XIAP-BIR2; FRET competition binding) [nM]
C[C@@H]1CN(CC(=O)N2CC(C)(C)c3[nH]c(=O)c(Cc4ccc(F)cc4F)cc32)[C@@H](CN2CCO[C@H](C(=O)NCc3ccc(CNC(=O)[C@@H]4CN(C[C@H]5CN[C@H](C)CN5CC(=O)N5CC(C)(C)c6[nH]c(=O)c(Cc7ccc(F)cc7F)cc65)CCO4)cc3)C2)CN1 [Compound 177, (2S,2′S)-N,N′-(1,4-phenylenebis(methylene)) bis(4-(((2R,5R)-1-(2-(6-(2,4-difluorobenzyl)-3,3-dimethyl-5-oxo-2,3,4,5-tetrahydro-1H-pyrrolo[3,2-b]pyridin-1-yl)-2-oxoethyl)-5-methylpiperazin-2-yl)methyl)morpholine-2-carboxamide)] | 0.49 to 12.6 | 31.6 to 501 | ++++ (FS>10,000) | 7.94 to 15.8 | +++ (10,000>FS>1,000) | 10000 to 51300 | 1000 to 3160 | 15.8 to 31.6 | +++ (10,000>FS>1,000) | 1000 to 3160 | 
C[C@@H]1CN(CC(=O)N2CC(C)(C)c3[nH]c(=O)c(Cc4ccc(F)cc4C#N)cc32)[C@@H](CN2CCO[C@H](C(=O)NCc3ccc(CNC(=O)[C@@H]4CN(C[C@H]5CN[C@H](C)CN5CC(=O)N5CC(C)(C)c6[nH]c(=O)c(Cc7ccc(F)cc7C#N)cc65)CCO4)cc3)C2)CN1 [Compound 179, (2S,2′S)-N,N′-(1,4-phenylenebis(methylene)) bis(4-(((2R,5R)-1-(2-(6-(2-cyano-4-fluorobenzyl)-3,3-dimethyl-5-oxo-2,3,4,5-tetrahydro-1H-pyrrolo[3,2-b]pyridin-1-yl)-2-oxoethyl)-5-methylpiperazin-2-yl)methyl)morpholine-2-carboxamide)] | 12.6 to 63.1 | 31.6 to 501 | +++ (10,000>FS>1,000) | 15.8 to 31.6 | +++ (10,000>FS>1,000) | 10000 to 51300 | 1000 to 3160 | 15.8 to 31.6 | ++ (1,000>FS>100) | 1000 to 3160 | 
C[C@@H]1CN(CC(=O)N2CC(C)(C)c3[nH]c(=O)c(Oc4ccc(F)cc4)cc32)[C@@H](CN2CCO[C@H](C(=O)NCc3ccc(CNC(=O)[C@@H]4CN(C[C@H]5CN[C@H](C)CN5CC(=O)N5CC(C)(C)c6[nH]c(=O)c(Oc7ccc(F)cc7)cc65)CCO4)cc3)C2)CN1 [Compound 181, (2S,2′S)-N,N′-(1,4-phenylenebis(methylene)) bis(4-(((2R,5R)-1-(2-(6-(4-fluorophenoxy)-3,3-dimethyl-5-oxo-2,3,4,5-tetrahydro-1H-pyrrolo[3,2-b]pyridin-1-yl)-2-oxoethyl)-5-methylpiperazin-2-yl)methyl)morpholine-2-carboxamide)] | 63.1 to 316 | 1.38 to 7.94 | ++++ (FS>10,000) | 1.38 to 7.94 | ++++ (FS>10,000) | 10000 to 51300 | 3160 to 10000 | 1.38 to 7.94 | ++++ (FS>10,000) | 3160 to 10000 | 
C[C@@H]1CN(CC(=O)N2CC(C)(C)c3[nH]c(=O)c(Oc4ccc(Br)cc4)cc32)[C@@H](CN2CCO[C@H](C(=O)NCc3ccc(CNC(=O)[C@@H]4CN(C[C@H]5CN[C@H](C)CN5CC(=O)N5CC(C)(C)c6[nH]c(=O)c(Oc7ccc(Br)cc7)cc65)CCO4)cc3)C2)CN1 [Compound 183, (2S,2′S)-N,N′-(1,4-phenylenebis(methylene)) bis(4-(((2R,5R)-1-(2-(6-(4-bromophenoxy)-3,3-dimethyl-5-oxo-2,3,4,5-tetrahydro-1H-pyrrolo[3,2-b]pyridin-1-yl)-2-oxoethyl)-5-methylpiperazin-2-yl)methyl)morpholine-2-carboxamide)] | 63.1 to 316 | 31.6 to 501 | +++ (10,000>FS>1,000) | 1.38 to 7.94 | +++ (10,000>FS>1,000) | 10000 to 51300 | 1000 to 3160 | 1.38 to 7.94 | +++ (10,000>FS>1,000) | 1000 to 3160 | 
Cc1ccc(Oc2cc3c([nH]c2=O)C(C)(C)CN3C(=O)CN2C[C@@H](C)NC[C@@H]2CN2CCO[C@H](C(=O)NCc3ccc(CNC(=O)[C@@H]4CN(C[C@H]5CN[C@H](C)CN5CC(=O)N5CC(C)(C)c6[nH]c(=O)c(Oc7ccc(C)cc7)cc65)CCO4)cc3)C2)cc1 [Compound 184, (2S,2′S)-N,N′-(1,4-phenylenebis(methylene)) bis(4-(((2R,5R)-1-(2-(3,3-dimethyl-5-oxo-6-(p-tolyloxy)-2,3,4,5-tetrahydro-1H-pyrrolo[3,2-b]pyridin-1-yl)-2-oxoethyl)-5-methylpiperazin-2-yl)methyl)morpholine-2-carboxamide)] | 316 to 3310 | 31.6 to 501 | +++ (10,000>FS>1,000) | 1.38 to 7.94 | ++++ (FS>10,000) | 10000 to 51300 | 3160 to 10000 | 7.94 to 15.8 | +++ (10,000>FS>1,000) | 3160 to 10000 | 
C[C@@H]1CN(CC(=O)N2CC(C)(C)c3[nH]c(=O)c(Oc4ccccc4)cc32)[C@@H](CN2CCO[C@H](C(=O)NCc3ccc(CNC(=O)[C@@H]4CN(C[C@H]5CN[C@H](C)CN5CC(=O)N5CC(C)(C)c6[nH]c(=O)c(Oc7ccccc7)cc65)CCO4)cc3)C2)CN1 [Compound 185, (2S,2′S)-N,N′-(1,4-phenylenebis(methylene)) bis(4-(((2R,5R)-1-(2-(3,3-dimethyl-5-oxo-6-phenoxy-2,3,4,5-tetrahydro-1H-pyrrolo[3,2-b]pyridin-1-yl)-2-oxoethyl)-5-methylpiperazin-2-yl)methyl)morpholine-2-carboxamide)] | 316 to 3310 | 31.6 to 501 | +++ (10,000>FS>1,000) | 1.38 to 7.94 | ++++ (FS>10,000) | 10000 to 51300 | 3160 to 10000 | 15.8 to 31.6 | +++ (10,000>FS>1,000) | 10000 to 51300 | 
C[C@@H]1CN(CC(=O)N2CC(C)(C)c3[nH]c(=O)c(Cc4ccccc4)cc32)[C@@H](CN2CCO[C@H](C(=O)NCc3ccc(CNC(=O)[C@@H]4CN(C[C@H]5CN[C@H](C)CN5CC(=O)N5CC(C)(C)c6[nH]c(=O)c(Cc7ccccc7)cc65)CCO4)cc3)C2)CN1 [Compound 186, (2S,2′S)-N,N′-(1,4-phenylenebis(methylene)) bis(4-(((2R,5R)-1-(2-(6-benzyl-3,3-dimethyl-5-oxo-2,3,4,5-tetrahydro-1H-pyrrolo[3,2-b]pyridin-1-yl)-2-oxoethyl)-5-methylpiperazin-2-yl)methyl)morpholine-2-carboxamide)] | 12.6 to 63.1 | 15.8 to 31.6 | ++++ (FS>10,000) | 1.38 to 7.94 | +++ (10,000>FS>1,000) | 10000 to 51300 | 22.4 to 1000 | 7.94 to 15.8 | ++ (1,000>FS>100) | 1000 to 3160 | 
C[C@@H]1CN(CC(=O)N2CC(C)(C)c3[nH]c(=O)c(Cc4ccc(F)cc4F)cc32)[C@@H](CN2CCO[C@H](COc3cccc(OC[C@@H]4CN(C[C@H]5CN[C@H](C)CN5CC(=O)N5CC(C)(C)c6[nH]c(=O)c(Cc7ccc(F)cc7F)cc65)CCO4)c3)C2)CN1 [Compound 190] | 0.49 to 12.6 | 15.8 to 31.6 | ++++ (FS>10,000) | 15.8 to 31.6 | +++ (10,000>FS>1,000) | 10000 to 51300 | 3160 to 10000 | 15.8 to 31.6 | +++ (10,000>FS>1,000) | 3160 to 10000 | 
C[C@@H]1CN(CC(=O)N2CC(C)(C)c3[nH]c(=O)c(Cc4ccc(F)cc4)cc32)[C@@H](CN2CCN(C(=O)CCCCCCCCC(=O)N3CCN(C[C@H]4CN[C@H](C)CN4CC(=O)N4CC(C)(C)c5[nH]c(=O)c(Cc6ccc(F)cc6)cc54)[C@H](C)C3)C[C@H]2C)CN1 [Example 3, 1,10-bis((R)-4-(((2R,5R)-1-(2-(6-(4-fluorobenzyl)-3,3-dimethyl-5-oxo-2,3,4,5-tetrahydro-1H-pyrrolo[3,2-b]pyridin-1-yl)-2-oxoethyl)-5-methylpiperazin-2-yl)methyl)-3-methylpiperazin-1-yl)decane-1,10-dione] | 12.6 to 63.1 | 31.6 to 501 | +++ (10,000>FS>1,000) | 15.8 to 31.6 | ++ (1,000>FS>100) |  | 22.4 to 1000 | 7.94 to 15.8 | ++ (1,000>FS>100) | 1000 to 3160 | 10000 to 51300
